Data from US20090143279A1 (priority 2007, published 2009).
Like-named read-outs stand apart in the source and are kept apart here.

Legend:
[1] = tested on: mitochondrial membrane potential; type: cell-based, mouse
reactive oxygen species = type: cell-based, mouse
cytochrome c = type: cell-based, mouse
mtOXPHOS transcripts = type: cell-based, mouse
nuOXPHOS transcripts = type: cell-based, mouse
[2] = tested on: cellular dehydrogenase activity
OXPHOS gene expression = type: cell-based, mouse
[3] = composite Z-score vs DMSO, Conc 20 μM
[4] = composite Z-score vs mock-treated (DMSO) wells, Conc 20 μM
[5] = composite Z-score vs mock-treated (DMSO) wells, concentration of each compound in μM
[6] = 20 μM, composite Z-score vs DMSO

SMILES | ΔΨm [1, 4] | ROS (reactive oxygen species; [4]) | Viability (C2C12 myotubes; [4]) | cyt c (cytochrome c; [4]) | mitoOX (mtOXPHOS transcripts; [4]) | nucOX (nuOXPHOS transcripts; [4]) | MTT [2, 4] | GE-HTS (OXPHOS gene expression; [4]) | other results
Cc1cc(O)c(C=O)c2c1C(=O)Oc1c(C)c(O)c3c(c1O2)C(O)OC3=O (stereo not shown) [norstictic acid] | 0.903 | 0.560 | −0.899 | 0.471 | −0.148 | 0.774 | −0.567 | 0.518 | ΔΨm [1, 3]: −0.628; ROS (reactive oxygen species; [3]): −0.426; Viability (C2C12 myotubes; [3]): 0.730; cyt c (cytochrome c; [3]): 0.467; mitoOX (mtOXPHOS transcripts; [3]): −1.023; nucOX (nuOXPHOS transcripts; [3]): −0.639; MTT [2, 3]: −0.613; GE-HTS (OXPHOS gene expression; [3]): −0.800
C[C@@H]1[C@H](O)[C@@H](C)/C=C/C=C/CC/C=C/C=C/C=C/C=C/C(O[C@H]2O[C@H](C)[C@@H](O)[C@H](N)[C@@H]2O)CC2O[C@](O)(CC(O)C(O)CCC(O)CC(O)CC(O)CC(=O)O[C@H]1C)CC(O)C2C(=O)O (stereo partly shown) [nystatin] | – | – | – | – | – | – | – | – | ΔΨm [1, 3]: −0.356; ROS (reactive oxygen species; [3]): −0.043; Viability (C2C12 myotubes; [3]): 0.794; cyt c (cytochrome c; [3]): −0.059; mitoOX (mtOXPHOS transcripts; [3]): 0.289; nucOX (nuOXPHOS transcripts; [3]): 0.284; MTT [2, 3]: 0.161; GE-HTS (OXPHOS gene expression; [3]): 0.326
C[C@@H]1[C@H](O)[C@@H](C)/C=C/C=C/CC/C=C/C=C/C=C/C=C/C(O[C@H]2O[C@H](C)[C@@H](O)[C@H](N)[C@@H]2O)CC2O[C@](O)(CC(O)C(O)CCC(O)CC(O)CC(O)CC(=O)O[C@H]1C)CC(O)C2C(=O)O (stereo partly shown) [nystatine] | – | – | – | – | – | – | – | – | ΔΨm [1, 5]: −0.660; ROS (reactive oxygen species; [5]): 0.765; Viability (C2C12 myotubes; [5]): −0.430; cyt c (cytochrome c; [5]): 0.061; mitoOX (mtOXPHOS transcripts; [5]): −0.683; nucOX (nuOXPHOS transcripts; [5]): −0.272; MTT [2, 5]: −1.147; GE-HTS (OXPHOS gene expression; [5]): −0.436
CC1(C)OC(=O)C=CC2(C)C1CC(O)C1(C)C2CCC2(C)C(c3ccoc3)OC(=O)C3OC321 (stereo not shown) [obacunol] | 0.464 | −0.134 | 2.016 | 0.859 | −0.734 | −0.927 | −0.982 | −0.906 | –
C=C(C)[C@H]1COc2cc3oc(=O)ccc3cc2O1 [obliquin] | 0.088 | 0.977 | 0.539 | −1.172 | 0.105 | −0.459 | −0.268 | −0.313 | –
C[C@@H]([C@H]1OC(C)(C)[C@@H](O)[C@H]1O)[C@@H]1CC[C@]2(C)C3=CC[C@H]4C(C)(C)C(=O)CC[C@]4(C)[C@H]3CC[C@@]12C [odoratone] | 0.367 | 0.083 | 0.542 | 0.707 | −0.873 | −0.988 | −1.060 | −0.994 | –
CC1COc2c(N3CCN(C)CC3)c(F)cc3c(=O)c(C(=O)O)cn1c23 (stereo not shown) [ofloxacin] | – | – | – | – | – | – | – | – | ΔΨm [1]: −0.891; ΔΨm [1, 6]: −0.281; ROS (reactive oxygen species): 0.908; ROS (reactive oxygen species; [6]): −0.182; Viability (C2C12 myotubes): −0.425; Viability (C2C12 myotubes; [6]): −1.148; cyt c (cytochrome c): 0.492; cyt c (cytochrome c; [6]): 0.309; mitoOX (mtOXPHOS transcripts): 0.353; mitoOX (mtOXPHOS transcripts; [6]): −0.041; nucOX (nuOXPHOS transcripts): 0.059; nucOX (nuOXPHOS transcripts; [6]): −0.622; MTT [2]: −0.967; MTT [2, 6]: −1.248; GE-HTS (OXPHOS gene expression): 0.182; GE-HTS (OXPHOS gene expression; [6]): −0.458
CC1(C)CC[C@]2(C(=O)O)CC[C@]3(C)C(=CC[C@@H]4[C@@]5(C)CC[C@H](O)C(C)(C)[C@@H]5CC[C@]43C)[C@@H]2C1 [oleanoic acid] | −0.910 | −0.144 | 0.492 | 0.754 | −1.014 | −1.408 | −0.720 | −1.379 | –
Cc1cc(O)cc(O)c1C(=O)O [orsellinic acid] | −0.846 | 1.236 | −0.320 | −0.015 | −0.333 | −0.350 | −1.311 | −0.348 | –
